This note sets out measurements from patent US7875596B2, “Use of dermatan sulfates and/or desulfated heparins to treat or prevent heparinoid-induced autoimmune responses” (Celsus Biopharmaceuticals, Inc., priority 2004, dated 2011).

The nature of test [1]: Heparin assay (USP heparin potency). From the text:
The chemical, physical and physiological properties of the dermatan sulfates, including the LMWDS embodiments, of this invention can be determined by the following methods: • a. Molecular weight. By gel permeation chromatography according to the method of and as defined by van Dedem et al., “Determinations of the Molecular Mass of Low Molecular Mass (LMM) Heparin,” Pharmeuropa (1991) 3:202-225 (herein incorporated by reference), using the 1st International Reference Standard for Low Molecular Weight Heparin (90/868) as the calibrant. Average molecular weights. By viscometric methods as described by Liberti et al., “Physiochemical Studies of Fractionated Bovine Heparin II: Viscosity as a Function of Ionic Strength,” Arch. Biochem. Biophys. […] The % sulfur is determined from the weight of barium sulfate. • c. […] Measurements can be performed manually or on an ACL 300 Plus Analyzer (Instrumentation Laboratory, Lexington Mass.) and anti-factor IIa activity calculated based on the USP Heparin Reference Standard K-5 (U.S. Pharmacopeial Convention, Inc., Rockville Md.). • e. […] Quantified by the PF4 ENHANCED® ELISA kit (Cat. No. X-HAT 45) according to the manufacturer's instructions (GTI, Waukesha Wis.).
The chemical, physical and physiological properties of the O-desulfated heparins of this invention can be determined by the following methods: • a. […]

Test [2] concerns the target T1, purified α-thrombin in the presence of purified human HCII (Homo sapiens, UniProt P05546).
T1 construct: Performed in a plasma-free system with purified α-thrombin; purchased Enzyme Research Laboratories, South Bend Ind; (α-thrombin, Lot No. HT2450PRA)
T1 sequence (P05546 20-499): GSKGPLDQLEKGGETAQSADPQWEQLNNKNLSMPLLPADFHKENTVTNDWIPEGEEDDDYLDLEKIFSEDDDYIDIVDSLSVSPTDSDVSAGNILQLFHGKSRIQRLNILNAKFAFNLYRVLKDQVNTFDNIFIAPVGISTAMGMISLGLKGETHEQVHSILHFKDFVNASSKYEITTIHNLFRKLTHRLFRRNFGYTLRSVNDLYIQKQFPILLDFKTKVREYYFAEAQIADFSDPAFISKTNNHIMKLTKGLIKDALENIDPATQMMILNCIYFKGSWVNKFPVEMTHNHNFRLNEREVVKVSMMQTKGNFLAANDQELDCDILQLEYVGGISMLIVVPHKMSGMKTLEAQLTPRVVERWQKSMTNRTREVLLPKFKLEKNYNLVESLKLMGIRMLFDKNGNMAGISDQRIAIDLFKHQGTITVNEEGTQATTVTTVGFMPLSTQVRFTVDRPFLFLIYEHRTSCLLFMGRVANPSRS
Nature of the test: HCII/anti-IIa activity (plasma-free chromogenic anti-IIa assay with heparin cofactor II). The class given is biochemical. From the text: For the purposes of the present invention, the terms “heparin cofactor II (HCII)-dependent anti-IIa activity,” “heparin cofactor II activity” and “HCII activity” refer interchangeably to the thrombin inhibitory potency of a sulfated mucopolysaccharide measured in the presence of purified human heparin cofactor II.
The chemical, physical and physiological properties of the dermatan sulfates, including the LMWDS embodiments, of this invention can be determined by the following methods: • a. Molecular weight. By gel permeation chromatography according to the method of and as defined by van Dedem et al., “Determinations of the Molecular Mass of Low Molecular Mass (LMM) Heparin,” Pharmeuropa (1991) 3:202-225 (herein incorporated by reference), using the 1st International Reference Standard for Low Molecular Weight Heparin (90/868) as the calibrant. Average molecular weights. […] The % sulfur is determined from the weight of barium sulfate. • c. […] Measurements can be performed manually or on an ACL 300 Plus Analyzer (Instrumentation Laboratory, Lexington Mass.) and anti-factor IIa activity calculated based on the USP Heparin Reference Standard K-5 (U.S. Pharmacopeial Convention, Inc., Rockville Md.). • e. […] Quantified by the PF4 ENHANCED® ELISA kit (Cat. No. X-HAT 45) according to the manufacturer's instructions (GTI, Waukesha Wis.).

In test [1], dermatan sulfate displayed a heparin assay of less than 8 u/mg. Besides, the HCII/anti-IIa activity entry in test [2] is “less than 15 u/mg”.
